In PubChem BioAssay (NCI):
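GI50 marks 50% less growth. The concentration for full growth arrest is given as TGI.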

Key:
Test in all cases: DTP human tumour cell line panel, 384-well format
786-0 renal = test system: 786-0 renal
A498 renal = test system: A498 renal
A549 NSCLC = test system: A549 NSCLC
ACHN renal = test system: ACHN renal
BT-549 breast = test system: BT-549 breast
CAKI-1 renal = test system: CAKI-1 renal
CCRF-CEM leukemia = test system: CCRF-CEM leukemia
COLO 205 colon = test system: COLO 205 colon
DU-145 prostate = test system: DU-145 prostate
EKVX NSCLC = test system: EKVX NSCLC
HCT-116 colon = test system: HCT-116 colon
HCT-15 colon = test system: HCT-15 colon
HOP-62 NSCLC = test system: HOP-62 NSCLC
HOP-92 NSCLC = test system: HOP-92 NSCLC
HS 578T breast = test system: HS 578T breast
HT29 colon = test system: HT29 colon
IGROV1 ovarian = test system: IGROV1 ovarian
K-562 leukemia = test system: K-562 leukemia
KM12 colon = test system: KM12 colon
LOX IMVI melanoma = test system: LOX IMVI melanoma
M14 melanoma = test system: M14 melanoma
MALME-3M melanoma = test system: MALME-3M melanoma
MCF7 breast = test system: MCF7 breast
MDA-MB-231 breast = test system: MDA-MB-231 breast
MDA-MB-435 melanoma = test system: MDA-MB-435 melanoma
MDA-MB-468 breast = test system: MDA-MB-468 breast
MOLT-4 leukemia = test system: MOLT-4 leukemia
NCI-H226 lung = test system: NCI-H226 lung
NCI-H23 lung = test system: NCI-H23 lung
NCI-H322M lung = test system: NCI-H322M lung
NCI-H460 NSCLC = test system: NCI-H460 NSCLC
NCI-H522 lung = test system: NCI-H522 lung
NCI/ADR-RES ovarian = test system: NCI/ADR-RES ovarian
OVCAR-3 ovarian = test system: OVCAR-3 ovarian
OVCAR-4 ovarian = test system: OVCAR-4 ovarian
OVCAR-5 ovarian = test system: OVCAR-5 ovarian
OVCAR-8 ovarian = test system: OVCAR-8 ovarian
PC-3 prostate = test system: PC-3 prostate
RPMI-8226 leukemia = test system: RPMI-8226 leukemia
RXF 393 renal = test system: RXF 393 renal
SF-268 CNS = test system: SF-268 CNS
SF-295 CNS = test system: SF-295 CNS
SF-539 CNS = test system: SF-539 CNS
SK-MEL-28 melanoma = test system: SK-MEL-28 melanoma
SK-MEL-5 melanoma = test system: SK-MEL-5 melanoma
SK-OV-3 ovarian = test system: SK-OV-3 ovarian
SN12C renal = test system: SN12C renal
SNB-19 CNS = test system: SNB-19 CNS
SNB-75 CNS = test system: SNB-75 CNS
SR leukemia = test system: SR leukemia
SW-620 colon = test system: SW-620 colon
T-47D breast = test system: T-47D breast
TK-10 renal = test system: TK-10 renal
U251 glioblastoma = test system: U251 glioblastoma
UACC-257 melanoma = test system: UACC-257 melanoma
UO-31 renal = test system: UO-31 renal

## C[C@H]1CNC(=O)c2cnn3ccc(nc23)N[C@H](C)c2cc(F)ccc2O1
786-0 renal
  GI50: 1290 nM
  TGI: 2660 nM
A498 renal
  GI50: 779 nM
  TGI: 2100 nM
A549 NSCLC
  GI50: 439 nM
  TGI: 10800 nM
ACHN renal
  GI50: 511 nM
  TGI: 2650 nM
BT-549 breast
  GI50: 1070 nM
  TGI: 2300 nM
CAKI-1 renal
  GI50: 829 nM
  TGI: 2090 nM
CCRF-CEM leukemia
  GI50: 189 nM
  TGI: 345 nM
COLO 205 colon
  GI50: 1430 nM
  TGI: 2930 nM
DU-145 prostate
  GI50: 1430 nM
  TGI: 5040 nM
EKVX NSCLC
  GI50: 469 nM
  TGI: 3820 nM
HCT-116 colon
  GI50: 477 nM
  TGI: 11100 nM
HCT-15 colon
  GI50: 1360 nM
  TGI: 4600 nM
HOP-62 NSCLC
  GI50: 1120 nM
  TGI: 2850 nM
HOP-92 NSCLC
  GI50: 516 nM
  TGI: 1980 nM
HS 578T breast
  GI50: 249 nM
  TGI: 1250 nM
HT29 colon
  GI50: 776 nM
  TGI: 13400 nM
IGROV1 ovarian
  GI50: 229 nM
  TGI: 911 nM
K-562 leukemia
  GI50: 451 nM
  TGI: 1850 nM
KM12 colon
  TGI: 10100 nM
LOX IMVI melanoma
  GI50: 428 nM
  TGI: 1450 nM
M14 melanoma
  GI50: 31700 nM
  TGI: > 100000 nM
MALME-3M melanoma
  GI50: 4210 nM
  TGI: 30000 nM
MCF7 breast
  GI50: 429 nM
  TGI: 15200 nM
MDA-MB-231 breast
  GI50: 433 nM
  TGI: 2460 nM
MDA-MB-435 melanoma
  GI50: 16100 nM
  TGI: 49800 nM
MDA-MB-468 breast
  GI50: 629 nM
  TGI: 2010 nM
MOLT-4 leukemia
  GI50: 180 nM
  TGI: 342 nM
NCI-H226 lung
  GI50: 525 nM
  TGI: 2000 nM
NCI-H23 lung
  GI50: 521 nM
  TGI: 6750 nM
NCI-H322M lung
  GI50: 1140 nM
  TGI: 6010 nM
NCI-H460 NSCLC
  GI50: 391 nM
  TGI: 1690 nM
NCI-H522 lung
  GI50: 463 nM
  TGI: 2280 nM
NCI/ADR-RES ovarian
  GI50: 10600 nM
  TGI: 22600 nM
OVCAR-3 ovarian
  GI50: 414 nM
  TGI: 2030 nM
OVCAR-4 ovarian
  GI50: 687 nM
  TGI: 7350 nM
OVCAR-5 ovarian
  GI50: 527 nM
  TGI: 2910 nM
OVCAR-8 ovarian
  GI50: 1650 nM
  TGI: 4080 nM
PC-3 prostate
  GI50: 668 nM
  TGI: 4010 nM
RPMI-8226 leukemia
  GI50: 1610 nM
  TGI: 3760 nM
RXF 393 renal
  GI50: 187 nM
  TGI: 498 nM
SF-268 CNS
  GI50: 374 nM
  TGI: 1550 nM
SF-295 CNS
  GI50: 243 nM
  TGI: 1770 nM
SF-539 CNS
  GI50: 1020 nM
  TGI: 2230 nM
SK-MEL-28 melanoma
  GI50: 17100 nM
  TGI: 77100 nM
SK-MEL-5 melanoma
  GI50: 6620 nM
  TGI: 20500 nM
SK-OV-3 ovarian
  GI50: 522 nM
  TGI: 2930 nM
SN12C renal
  GI50: 664 nM
  TGI: 2260 nM
SNB-19 CNS
  GI50: 1830 nM
  TGI: 7860 nM
SNB-75 CNS
  GI50: 209 nM
  TGI: 816 nM
SR leukemia
  GI50: 37.2 nM
  TGI: 116 nM
SW-620 colon
  GI50: 444 nM
  TGI: 2850 nM
T-47D breast
  GI50: 1480 nM
  TGI: 15800 nM
TK-10 renal
  GI50: 635 nM
  TGI: 2100 nM
U251 glioblastoma
  GI50: 2290 nM
  TGI: 11400 nM
UACC-257 melanoma
  GI50: 12200 nM
  TGI: 37400 nM
UO-31 renal
  GI50: 1360 nM
  TGI: 2800 nM
